{"source": "patent US7326733B2", "about": "“Methods for increasing bone density” (The Forsyth Institute, priority 2003, dated 2008)", "key": {"RAW 264.7 cells": {"tested_on": "RAW 264.7 cells", "assay": "RANKL-induced osteoclast formation by RAW 264.7 cells, TRAP staining", "assay_type": "cell-based, mouse", "settings": "for osteoclast differentiation (TRAP+ multinucleated osteoclasts): exposure 4 days", "experimental": "RAW 264.7 mouse macrophage/monocytes (TIB-71) were purchased from ATCC (Manassas, Va.). Cells were cultured in DMEM/1.5 g/l sodium bicarbonate (JRH Biosciences, Lenexa, Kans.) plus 10% non-heat-inactivated FBS (Invitrogen Corporation Carlsbad, Calif.). When needed, 5-HT was stripped from the FBS by incubating it twice in 0.25% Dextran-coated charcoal (Sigma-Aldrich, St. Louis, Mo.) for 30 minutes at 45° C. Recombinant mouse soluble RANKL (Immunex Corp., Seattle, Wash.) was added at a concentration of 10 ng/ml. Recombinant murine RANKL is an NH2-terminal fusion of a leucine zipper trimerization domain (Fanslow et al., 1994, Semin. Immunol. 6(5):267-278) with residues 134-316 of murine RANKL. […] Cultures were also exposed to the VMAT inhibitor reserpine and the MAO-B inhibitor pargylline (Sigma-Aldrich, St. Louis, Mo.), at the indicated concentrations for 4 days. Mouse bone marrow cells were obtained from long bones of 2-week old C57B1 mice and cultured for 7 days in αMEM/FBS supplemented with 50 ng/ml RANKL and 50 ng/ml human M-CSF (PeproTech Inc., Rocky Hill, N.J.).\n(§1) Cells were stained for tartrate-resistant acid phosphatase (TRAP) using a commercially available kit (#387-A, Sigma-Aldrich, St. Louis, Mo.), according to the manufacturer's directions."}, "Swiss Webster mice [1]": {"tested_on": "Swiss Webster mice", "assay": "Systemic fluoxetine, trabecular parameters in mice (Example 2)", "assay_type": "in vivo", "settings": "fluoxetine 10 mg/kg i.p. once a day for 6 weeks, vs non-treated mice", "source_text": "After 6 weeks the animals were sacrificed and trabecular bones were examined.\nThe increased number, increased connectivity, and decreased space between the transversal structures (i.e. trabeculae) of “spongelike bone” is indicative of increased density and strength of trabecular bone."}, "Swiss Webster mice [2]": {"tested_on": "Swiss Webster mice", "assay": "Femur bone mass by microcomputer tomography after fluoxetine (Example 6)", "assay_type": "in vivo", "parameters": "Trabecular thickness: unit not given here", "settings": "for Trabecular number / Trabecular spacing / Trabecular thickness / connectedness of trabeculae: hydrochloride"}, "[3]": {"settings": "cited from earlier work"}, "[4]": {"tested_on": "cathepsin K, MMP-9, TRAP expression", "assay": "Northern blot analysis of osteoclast markers in RANKL-stimulated RAW 264.7 cells", "assay_type": "cell-based, mouse", "parameters": "reduction in the expression of cathepsin K / reduction in the expression of MMP-9 / reduction in the expression of TRAP: dose or concentration left out as unconfirmed", "experimental": "Total RNA was extracted from cells using the TRIAZOL reagent (Invitrogen Corporation, Carlsbad, Calif.), according to the manufacturer's instructions. For RT-PCR, […] of RNA were reversed-transcribed to cDNA using SuperScript II (Invitrogen Corporation, Carlsbad, Calif.) following the manufacturer's instructions. One-tenth of the cDNA was used as a template for the polymerase chain reaction (PCR) […] (35 cycles at 94° C. for 1 minute, 58° C. for 1 minute and 72° C. for 1 minute). For Northern blot analysis, […] of RNA were size fractionated on a 1.2% agarose denaturing gel and transferred onto nylon membranes. The membranes were hybridized to ^32P radiolabeled probes overnight at 42° C. in hybridization solution (50% formamide, 5× SSC, 5× Denhardt's solution, 0.5% SDS and […] salmon sperm DNA), washed twice to remove unbound probe in 1× SSC, 0.2% SDS at 50° C. for 20 minutes, and exposed to X-ray film. The DNA probes were generated by reverse transcriptase polymerase chain reaction (RT-PCR) from OCL RNA, using the following primer-pairs: […]"}, "mice": {"tested_on": "mice", "assay": "New bone formation in calvarium after LPS or PTH plus fluoxetine, Van Giesson stain (Example 3)", "assay_type": "in vivo", "experimental": "LPS (50 μl at 5 μg/μl) or PTH was injected subcutaneously above the calvarial bone once on day one to stimulate the osteoclasts.\nAfter five days, the mice were sacrificed. The calvarium was fixed, decalcified, and analyzed histologically for new bone formation. Van Giesson stain was used to distinguish old bone from new bone (new bone stains blue). […] The x-axis represents arbitrary units of new bone formation, where 0 represents no new bone and 3 represents high amount of new bone."}, "[5]": {"tested_on": "Primary osteoblasts obtained from mouse calvaria", "assay": "Bone nodule formation in vitro, Von Kossa stain (Example 5)", "assay_type": "cell-based", "settings": "two weeks in presence of Vitamin D, presence vs absence of fluoxetine", "experimental": "Primary osteoblasts obtained from mouse calvaria were cultured in vitro for two weeks. […] The cells were then fixed and stained with Von Kossa stain, which stains for calcium phosphate present in bone nodules. Bone nodules formed by osteoblasts in vitro have the same cellular and biochemical composition found in bone. The number of bone nodules were counted."}, "[6]": {"tested_on": "normal mouse bone marrow cells (BMC)", "assay": "Osteoclast formation from normal mouse bone marrow cells with M-CSF and RANKL", "assay_type": "cell-based", "settings": "TRAP staining", "experimental": "Mouse bone marrow cells were obtained from long bones of 2-week old C57B1 mice and cultured for 7 days in αMEM/FBS supplemented with 50 ng/ml RANKL and 50 ng/ml human M-CSF (PeproTech Inc., Rocky Hill, N.J.).\nas §1"}, "[7]": {"settings": "femur, fluoxetine 10 mg/kg i.p. daily for six weeks, n = 6"}, "[8]": {"settings": "femur, fluoxetine 10 mg/kg i.p. daily for six weeks, n = 6, listed as Fluoxetine"}, "[9]": {"settings": "fluoxetine-treated vs untreated mice"}, "[10]": {"settings": "RANKL-stimulated RAW 264.7 cells"}, "[11]": {"settings": "added serotonin in 5-HT-depleted FBS, Days 3 and 4 after RANKL induction"}}, "note": "“Also recorded” adds a separate entry of the source.", "data": [{"smiles": "CNCCC(Oc1ccc(C(F)(F)F)cc1)c1ccccc1.Cl", "note": "(racemic) [fluoxetine, (+/−)—N-methyl-3-phenyl-3-[(α,α,α-trifluoro-p-tolyl)oxy]propylamine hydrochloride]", "values": [{"measurement": "formation of TRAP positive cells", "setting": "RAW 264.7 cells; RANKL-induced RAW 264.7 cells, fluoxetine concentration series", "result": "inhibited the formation of TRAP positive cells in a dose-dependent manner"}, {"measurement": "osteoclast differentiation (TRAP positive multinucleated cells)", "setting": "RAW 264.7 cells; RANKL-induced, 5-HT replete (FBS) and depleted (FBS−) serum", "result": "suppressed osteoclast differentiation"}, {"measurement": "Trabecular spacing", "setting": "Swiss Webster mice [1]", "result": "decreased"}, {"measurement": "number of trabeculae per unit length of bone", "setting": "Swiss Webster mice [1]", "result": "increased"}, {"measurement": "thickness of trabeculae", "setting": "Swiss Webster mice [1]", "result": "no significant difference"}, {"measurement": "bone mineral content (BMC)", "setting": "Swiss Webster mice [1]; hydrochloride", "result": "increase"}, {"measurement": "connectedness of trabeculae", "setting": "Swiss Webster mice [1]; hydrochloride", "result": "more connected; also recorded: increase"}, {"measurement": "Bone surface", "setting": "Swiss Webster mice [2]; [7]", "result": "16.9 ± 7.3", "unit": "mm^2"}, {"measurement": "Trabecular number", "setting": "Swiss Webster mice [2]; [7]", "result": "significant increases"}, {"measurement": "Trabecular spacing", "setting": "Swiss Webster mice [2]; [7]", "result": "reduction"}, {"measurement": "Trabecular thickness", "setting": "Swiss Webster mice [2]; [7]", "result": "stable"}, {"measurement": "connectedness of trabeculae", "setting": "Swiss Webster mice [2]; [7]", "result": "better connected"}, {"measurement": "Bone volume/total volume", "setting": "Swiss Webster mice [2]; femur, fluoxetine 10 mg/kg i.p. daily for six weeks, n = 6, in % (unit assumed)", "result": "16.7 ± 7.3"}, {"measurement": "Trabecular number", "setting": "Swiss Webster mice [2]; [8]", "result": "3.26 ± 0.53"}, {"measurement": "Trabecular spacing", "setting": "Swiss Webster mice [2]; [8]", "result": "0.32 ± 0.05"}, {"measurement": "Trabecular thickness", "setting": "Swiss Webster mice [2]; [8]", "result": "0.09 ± 0.01"}, {"measurement": "connectedness of trabeculae", "setting": "Swiss Webster mice [2]; [8]", "result": "114.2 ± 53.0"}, {"measurement": "increase in bone mineral content", "setting": "Swiss Webster mice [2]; [9]", "result": 50, "unit": "%"}, {"measurement": "increase in bone surface", "setting": "Swiss Webster mice [2]; [9]", "result": 50, "unit": "%"}, {"measurement": "increase in bone volume/total volume", "setting": "Swiss Webster mice [2]; [9]", "result": 50, "unit": "%"}, {"measurement": "half-life", "setting": "[3]; stated with the dosage range for treating depression", "result": "170 to 220", "unit": "h"}, {"measurement": "½ life", "setting": "[3]; stated with the mouse i.p. regimen of Example 2", "result": "1 to 2", "unit": "days"}, {"measurement": "reduction in the expression of MMP-9", "setting": "[4]; [10]", "result": 80, "unit": "%"}, {"measurement": "reduction in the expression of TRAP", "setting": "[4]; [10]", "result": "~20", "unit": "%"}, {"measurement": "reduction in the expression of cathepsin K", "setting": "[4]; [10]", "result": "~70", "unit": "%"}, {"measurement": "new bone formation", "setting": "mice; LPS injected above calvarial bone on day one, fluoxetine 10 mg/kg i.p. once a day for five days, vs LPS alone, hydrochloride", "result": "increased new bone formation; also recorded: greater increase in new bone"}, {"measurement": "new bone formation", "setting": "mice; co-administration of fluoxetine and PTH, vs PTH alone", "result": "greater increase in new bone"}, {"measurement": "number of bone nodules", "setting": "[5]", "result": "increased"}, {"measurement": "BMC-derived osteoclast formation", "setting": "[6]", "result": "significantly inhibited"}]}, {"smiles": "C#CCN(C)Cc1ccccc1", "note": "[pargylline]", "values": [{"measurement": "osteoclast differentiation (TRAP+ multinucleated osteoclasts)", "setting": "RAW 264.7 cells; presence of RANKL", "result": "had no effect"}]}, {"smiles": "COC(=O)[C@H]1[C@H]2C[C@@H]3c4[nH]c5cc(OC)ccc5c4CCN3C[C@H]2C[C@@H](OC(=O)c2cc(OC)c(OC)c(OC)c2)[C@@H]1OC", "note": "[reserpine]", "values": [{"measurement": "TRAP expression by mono- and bi-nucleated cells", "setting": "RAW 264.7 cells; absence of RANKL", "result": "induced TRAP expression"}, {"measurement": "formation of large multinucleated osteoclasts", "setting": "RAW 264.7 cells; absence of RANKL", "result": "not formed"}, {"measurement": "osteoclast differentiation (TRAP+ multinucleated osteoclasts)", "setting": "RAW 264.7 cells; presence of RANKL", "result": "promoted osteoclast differentiation"}, {"measurement": "cell size and multinucleation", "setting": "RAW 264.7 cells; presence of RANKL, reserpine treatment", "result": "stimulated the formation of much larger cells with greater multinucleation"}]}, {"smiles": "NCCc1c[nH]c2ccc(O)cc12", "note": "[serotonin, 5-hydroxytryptamine]", "values": [{"measurement": "number of osteoclasts", "setting": "RAW 264.7 cells; added serotonin at 30 or 300 ng/ml, 5-HT depleted FBS, RANKL-stimulated", "result": "significantly increased"}, {"measurement": "osteoclast formation", "setting": "RAW 264.7 cells; addition of serotonin 3-300 ng/ml, cultures containing FBS (5-HT replete)", "result": "had no effect"}, {"measurement": "MMP-9 expression", "setting": "[4]; [11]", "result": "up-regulated"}, {"measurement": "cathepsin K expression", "setting": "[4]; [11]", "result": "up-regulated"}]}]}
